Experimental data taken from patent US20260347399A1, “BRAIN PENETRATING PEPTIDES AND METHODS OF USE” (priority 2022, published 2026).
Ends that are not written are not given here.

Experiments:
[1] = biological target: T1, NRP-1 (Homo sapiens, UniProt O14786); assay: Peptide-phage binding on ELISA plate
T1 sequence (O14786 273-586 limits assumed): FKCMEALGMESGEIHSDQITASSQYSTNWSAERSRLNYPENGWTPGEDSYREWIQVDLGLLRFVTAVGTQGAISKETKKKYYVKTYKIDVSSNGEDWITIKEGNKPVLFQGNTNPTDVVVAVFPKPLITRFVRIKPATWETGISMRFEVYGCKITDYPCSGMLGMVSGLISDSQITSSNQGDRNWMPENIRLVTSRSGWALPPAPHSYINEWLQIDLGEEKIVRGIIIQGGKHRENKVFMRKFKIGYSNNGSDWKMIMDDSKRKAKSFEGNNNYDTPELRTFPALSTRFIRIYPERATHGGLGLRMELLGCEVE
Experimental: (§1) Reelin protein (#8546-MR-050; R&D Systems), NRP-1 b1b2 (wt and mutant) or 5% BSA was immobilized on Costar 96-Well ELISA plate (#3590, Corning Life Sciences, Tewksbury, MA, USA). The multiwell plates were coated with 20 μg/ml recombinant protein in 100 μl of PBS overnight at +4 °C, followed by blocking with 1% bovine serum albumin (BSA) in PBS overnight at +4 °C. The phage (5×10^8 pfu in 100 μl of PBS-BSA) was incubated overnight at +4 °C, followed by 6 washes with PBS containing 1% BSA and 0.1% Tween-20 (washing buffer) to remove background phages. BLT5615 OD600=0.5 containing 2 mM IPTG was used to recover the phages and determine the titer of samples.
(§2) Next, an affinity chromatography was performed to identify a receptor of the CVGTNCY (SEQ ID NO:2), and selected a receptor candidate, which is a secreted extracellular matrix protein Reelin. CVGTNCY (SEQ ID NO:2) binding to Reelin protein was tested by cell free method on ELISA plate. Recombinant human Reelin protein (Ser1221-Gln2666; 163 kDa) was used to coat the ELISA plate and the CVGTNCY (SEQ ID NO:2) peptide-phage was allowed to bind to it. After several washes, the titer of the experiment was determined to rate on the binding efficiency.
(§3) Reelin was identified from affinity chromatography proteomics data. […] The binding efficiency was evaluated based on the titer (PFU/ml) of each sample. […]

[2] = biological target: T2, mutant NRP1 (Homo sapiens, UniProt O14786); assay: Peptide-phage binding on ELISA plate
T2 sequence (O14786 273-586 limits assumed): T1 sequence (O14786 273-586 limits assumed)
Experimental: as §1, §2, §3

[3] = test system: mouse brain; assay: In vivo phage display with CX4CYX library
Experimental: In vivo phage display with CX4CYX library was performed in three selection rounds. Phage library was injected intravenously to Balb/c mice and allowed to circulate for one hour. After circulation, the animals were anesthetized and perfused intracardially with acid and detergent buffers. Brain and control organs were collected and homogenized in 1% NP40-LB. Bound phages were rescued by amplification in E. coli and their genomic DNA was sequenced by Ion Torrent next generation DNA sequencing system.
A novel phage library CX4CYX was constructed based on the alanine-leucine screen to find new brain homing peptides). This knowledge directed us to construct a novel phage library CX4CYX (X—any amino acid), where Cys1, Cys6 and Tyr7 remained in their intact positions, and the four amino acid variable-domain laid between the cysteines, and one amino acid variability after Tyr7. Three rounds of phage bio-panning was performed to allow enrichment of peptides in the brain. Again acid and detergent buffers were used for perfusion to remove non-specifically bound phages from the brain after systemic administration of phage library (round 1) and recovered brain phage pools (round 2 and 3). HTS reads from round 1 to round 3 indicated decent enrichment of in-frame peptides in the brain (Table 6).

[4] = test system: mouse brain; assay: Peptide-phage biodistribution after i.v. injection; format: in vivo
Experimental: For titering-based biodistribution studies, nucleotide sequences coding for peptides of interest were cloned into T7 phage genomic DNA to be expressed on the phage surface as C-terminal fusions to capsid protein. The cloning was performed using complementary oligonucleotides, the phage clones were amplified, and purified as described in (Põšnograjeva, et al., 2022). 5×10^9 pfu of peptide-phage clone was injected i.v. into male Balb/C mice or 5×10^10 pfu of phage was injected into female Sprague-Dawley rats (n=3). 60 min later, the animals were anesthetized and perfused with PBS. The tissues were collected, homogenized, and the amount of phage in tissue lysates was determined by titering using E. coli strain BLT5615.
A complete listing of peptides that were identified from Ion Torrent high throughput sequencing from bio-panning Round 5 is set forth in Table 1B.
The peptide-phage was injected i.v. and following 1 h circulation, the mice were perfused, brain and control organs were collected and phage titer in each tissue was determined. Insertless T7 phage was used as a negative control and a phage displaying BBB penetrating peptide Angiopep-2 (TFFYGGSRGKRNNFKTEEY; SEQ ID NO:97) was used for comparison. Cerepep phage achieved approximately 300-fold higher accumulation in mouse brain compared to control and Angiopep-2 phages (FIG. 2A; Peptide-phage accumulation in the brain. 5×10^9 pfu of phage was injected i.v. and following 1 h circulation mice were perfused with PBS. The amount of phage accumulated in the brain was determined by titering). To assess the brain distribution of […] (SEQ ID NO:9), the mouse brain was dissected to separate the olfactory bulbs, cerebellum, brain stem and the hemispheres before determining the titer in the tissue.
The brain selectivity of SRRVISRAKLAAAL (SEQ ID NO:9) phage following a systemic administration was studied in mice and rats by determining the titer of […] (SEQ ID NO:9) and control phage in multiple control tissues.

Row | Substance | binding to NRP-1 [1] | binding to mutant NRP1 [2] | R1 reads ([3]; round 1) [reads] | R3 reads ([3]; round 3) [reads] | reads in the brain compared to CAGALCY ([3]; round 3, vs CAGALCY) | R3 > R1 (ratio of sequencing reads between round 3 and round 1) ([3]; round 3 / round 1) | homing preference ([4]; mouse, in vivo) | accumulation in mouse brain, fold over Angiopep-2 phage ([4]; peptide-phage 5×10^9 pfu i.v., 1 h, vs Angiopep-2 phage) | accumulation in mouse brain, fold over control phage ([4]; peptide-phage 5×10^9 pfu i.v., 1 h, vs insertless control phage) | accumulation in the brain, shorter versions of Pep1 ([4]; peptide-phage 5×10^9 pfu i.v., 1 h circulation) | brain selectivity (titer in brain vs control tissues) ([4]; peptide-phage i.v., 1 h, mice) | accumulation in brain regions and spinal cord ([4]; peptide-phage i.v., 1 h, olfactory bulbs, cerebellum, brain stem, hemispheres, spinal cord, compared to control phage)
1 | CVGTNCY | no binding was detected | no binding was detected | 12 | 37038 | about 40 times | 3087 |  |  |  |  |  | 
2 | SRRVISRAKLAAAL [Cerepep, SRRVISRAKLAAAL] |  |  |  |  |  |  | homes preferentially to the eyes/brain/CNS | approximately 300 fold | approximately 300 fold | shortest peptide still achieving a high accumulation in the brain | highest accumulation in the brain and low accumulation in all other tested tissues | high accumulation in all tested brain regions as well as in the spinal cord
